This is an account of results in patent US20240207157A1, “ORAL CARE AGENT” (priority 2021, published 2024).

Data set [1] deals with GM-CSF. As to the kind of experiment: ELISA, GM-CSF experiments in HaCaT cells. The data set is classed as cell-based, human. Conditions: 48 h. Here is the method: (§1) For Q-PCR: Determination of VEGF, HGF and EGF mRNA expression in cell lysates • 2. For ELISA: Determination of VEGF, HGF and EGF protein synthesis/secretion into the culture medium
(§2) The initial cell count was • 1. for Q-PCR: 140,000 cells/well in 1500 μl culture medium • 2. for ELISA: 140,000 cells/well in 1.500 μl culture medium.
(§3) The trial duration for • 1. Q-PCR was 24 hours (single treatment at time 0 h) • 2. ELISA was 48 hours (double treatment at time 0 h and 24 h without changing the medium).
For orientation: An ELISA detects its analyte on a solid surface through an enzyme-linked reagent.

For data set [2], the system named is VEGF. The data set can be described thus: ELISA, VEGF protein synthesis/secretion into the culture medium of HaCaT cells. Conditions: 48 hours. Format: cell-based, human. Here is the method:
as §1, §2, §3
(§4) The study was carried out • 1. for Q-PCR by determining VEGF mRNA expression in cell lysates • 2. for ELISA by determining VEGF protein synthesis/secretion in the culture medium.

A further data set concerns TGFβ2. As to the kind of experiment: Q-PCR, TGFβ2 mRNA expression in HaCaT cells. Format: cell-based, human.
Data set [3] concerns human epidermal HaCaT keratinocytes. As to the kind of experiment: colorimetric MTT viability study on HaCaT keratinocytes.
Experimental: To investigate the effect of caffeine on the biological functions of human epidermal HaCaT keratinocytes, cell experiments were performed on human epidermal HaCaT keratinocytes, wherein the following studies were carried out: • 1.
The initial cell count was 5000 cells/well in 100 μl culture medium.
The culture medium was HaCaT medium (DMEM with the addition of 10% FBS, 1% penicillin-streptomycin, 0.5% fungizone).
The treatment groups were as follows: • 1. Control group (CTRL) • 2. 0.00005% caffeine • 3. 0.0001% caffeine • 4. 0.0005% caffeine • 5. 0.001% caffeine • 6. 0.005% caffeine
The trial durations were 24, 48 and 72 hours.
The study took the form of a colorimetric MTT study.
The subject of data set [4] is VEGF. The data set can be described thus: Q-PCR, VEGF mRNA expression in HaCaT cell lysates. The data set is classed as cell-based, human. As to the method: as §1, §2, §3, §4
The conditions of data set [5]: humans, after drinking four cups of coffee; cited from earlier work.
Data set [6] concerns human epidermal HaCaT keratinocytes. As to the kind of experiment: fluorometric CyQUANT cell proliferation study (DNA content). Format: cell-based. Conditions: 0.00005, 0.0005, 0.005% caffeine; 24, 48 or 72 hours; best effects after 72 hours. Here is the method: To investigate the effect of caffeine on cell proliferation of human epidermal HaCaT keratinocytes, human HaCaT keratinocytes were subjected to a CyQUANT viability assay, wherein the following series of experiments were performed: • 1. P22 Experiment 1 (biological assay 1) • 2. P24 Experiment 2 (biological assay 2).
The trial durations were 24, 48 or 72 hours.
The study was carried out by fluorometric CyQUANT study, wherein the DNA content was measured, reflecting cell proliferation.

A further data set has as its system TGFβ1. As to the kind of experiment: Q-PCR, TGFβ1 mRNA expression in HaCaT cells. The data set is classed as cell-based, human.
For data set [7], the system named is GM-CSF. As to the kind of experiment: Q-PCR, GM-CSF experiments in HaCaT cells. Conditions: all tested caffeine concentrations, 24 h, Experiments 1 and 2. The data set is classed as cell-based, human. Here is the method: as §1, §2, §3
[8] abbreviates: 0.0005% caffeine, both experiments.

SMILES strings stand for the structures.

On to `Cn1c(=O)c2c(ncn2C)n(C)c1=O` [caffeine], for which the “VEGF protein production/secretion compared to the control group (experiments regarding GM-CSF)” value is listed as “also showed an effect” in the data set with GM-CSF [1] (0j.005% caffeine, Experiment 2) and “increased VEGF protein production/secretion” in the data set with GM-CSF [1] (setting [8]). Further, the “VEGF protein production/secretion compared to the control group” value with VEGF [2] (setting [8]) is on record as “increases VEGF protein production/secretion”; in the data set with VEGF [2] (0.005% caffeine, Experiment 2) it was “also showed an effect”. The “mRNA expression of TGFβ2” value in the data set with TGFβ2 (certain caffeine concentrations, 24 h, Experiment 2) was “apparently increase mRNA expression of TGFβ2”. Moreover, the “synthesis/production/secretion of TGFβ2” value in the data set on TGFβ2 (taken together, contradictory results in the two Q-PCR experiments) is on record as “most likely does not alter”. Besides, in [3] (0.00005-0.005% caffeine, up to 72 hours), the cytotoxicity result was “none of the concentrations tested showed cytotoxicity”. Moreover, the “number of viable cells” value in data set [3] (certain concentrations of caffeine, MTT) is “increased the number of viable cells”. For the same molecule, the “mRNA expression of VEGF compared to the control group” value in the data set with VEGF [4] (all caffeine concentrations, 24 hours treatment, Experiments 1 and 2) is given as “appear to increase mRNA expression of VEGF”. For the same molecule, the “synthesis and production/secretion of VEGF” value in the data set on VEGF [4] (certain concentrations of caffeine, Q-PCR and ELISA taken together) is “increase the synthesis and production/secretion of VEGF”. Further, the “caffeine concentration in the blood serum” value in data set [5] is 20 to 50 µmol/L. Also, in data set [5], the “total amount corresponding to the serum concentration” value is 15-35 milligrams. In addition, in data set [6], the cell proliferation result is recorded as “appears to promote cell proliferation”. Further, the “mRNA expression of TGFβ1” value in the data set on TGFβ1 (all tested caffeine concentrations, 24 h, Experiments 1 and 2) is “None of the tested caffeine concentrations changed the mRNA expression of TGFβ1”. Besides, the “synthesis/production/secretion of TGFβ1” value in the data set with TGFβ1 (taken together, Q-PCR and ELISA) is listed as “does not alter”. Further, the “mRNA expression of VEGF compared to the control group (experiments regarding GM-CSF)” value with GM-CSF [7] is reported as “apparently increased the mRNA expression of VEGF”.
